Experimental data published in patent publication US7977341B2, “Substituted isoxazoles as fungicides” (Syngenta Limited, priority 2004, dated 2011).
Like-named read-outs stand apart in the source and are kept apart here.

Legend:
Sclerotinia homoeocarpa = assay: Turf trial on creeping bentgrass (dollar spot)
Experimental: A fungicide trial was conducted on a 15-yr-old sward of creeping bentgrass v. Penncross during the spring. […] Treatments were arranged as plots (0.5×1.0 m) in a randomized complete block design with four replications. […] The turfgrass was inoculated with autoclaved tall fescue seed infested with Sclerotinia homoeocarpa (common name: dollar spot) six hours after application of the initial preventive treatments. The plots received approximately 0.24 inches of irrigation water daily at 1700 hour to ensure nightly foliar wetness for infection. The Horsfall-Barratt rating scale was used to visually estimate disease severity at approximately 7-day intervals from the initial application date. Turfgrass quality was assessed using a 0-9 scale where 0=a necrotic, thin foliar canopy and 9=a dark green, dense foliar canopy. Disease and quality values were subjected to analysis of variance and means were statistically separated using the Scott-Knott cluster analysis procedure.

Puccinia recondita = assay: Cereal field trial on soft red winter wheat (leaf rust); type: in vivo; conditions: wheat cultivar Sisson
Experimental: A field trial of Compound 4 was conducted on soft red winter wheat cultivar Sisson. Very dry weather gave rise to a low natural incidence of leaf rust (Puccinia recondita: PUCCRT) late in the trial. Compound 4 was applied as a 9.5% active ingredient (weight/weight) emulsifiable concentrate of the following formula (each weight/weight): 9.5% Compound 4, 9.5% m-Pyrol, 65% Surfadone LP-100, 6% Surfadone LP-300, 5% Toximul 3463F, and 5% Toximul 3464F. Rates of Compound 4 application were as follows (grams active ingredient per hectare: g a.i./ha): 140, 280 and 421.

Stagonospora nodorum = assay: Fungicidal activity, microtiter plate format; type: cell-based; conditions: for IC50: Parastagonospora nodorum, read-out: IC50 S. nodorum
Septoria tritici = assay: Fungicidal activity, microtiter plate format; type: cell-based
Phytophthora infestans = assay: microbe, parasite or virus in culture; type: cell-based; conditions: read-out: IC50 P. infestans
Botrytis cinerea = assay: Fungicidal activity, microtiter plate format; type: cell-based
[1] = fungal growth on agar, 20° C., 3-5 days, C.V. class in parentheses

Compound | IC50 S. nodorum (Stagonospora nodorum; [1]) | IC50 S. tritici (Septoria tritici; [1]) | IC50 (Phytophthora infestans) | IC50 B. cinerea (Botrytis cinerea; [1]) | IC50 S. tritici (Septoria tritici) | other results
OC(c1cccnc1)c1c(-c2ccc(Cl)cc2Cl)noc1-c1cccc(Cl)c1 (stereo not shown) [Compound 4, 5-(3-Chlorophenyl)-3-(2,4-dichlorophenyl)-4-[(3-pyridyl)hydroxymethyl]-isoxazole] | A (b) | A (c) | > 100 µM | B (d) |  | Dollar spot disease control (Horsfall-Barratt disease severity) (Sclerotinia homoeocarpa; creeping bentgrass v. Penncross, Compound 4 as 25% wetable powder at 2.2, 4.4, 8.8 g a.i./1000 sq ft, mean disease <3.0% acceptable): effective control on dollar spot during most of the trial period; Turfgrass quality (0-9 scale) (Sclerotinia homoeocarpa; creeping bentgrass, ratings >6.0 acceptable): Highest quality ratings; Control of leaf rust incidence (Puccinia recondita; 9.5% emulsifiable concentrate, 140, 280 and 421 g a.i./ha, low natural incidence): good control of the rust incidence; Yield enhancement (Puccinia recondita; highest rate of Compound 4): Yield enhancement was observed
C[Si](C)(C)c1onc(-c2c(Cl)cccc2Cl)c1C(O)c1cccnc1 (stereo not shown) [Compound 1, 3-(2,6-Dichlorophenyl)-4-[(3-pyridyl)hydroxymethyl]-5-trimethylsilylisoxazole] |  |  | > 100 µM |  | C (b) | IC50 (Stagonospora nodorum): > 100 µM; IC50 (Botrytis cinerea; Botrytis cinerea, read-out: IC50 B. cinerea): > 100 µM
CC(C)(C)c1onc(-c2ccc(Cl)cc2Cl)c1C(O)c1cccnc1 (stereo not shown) [Compound 7, 3-(2,4-Dichlorophenyl)-5-(1,1-dimethylethyl)-4-[(3-pyridyl)hydroxymethyl]-isoxazole] |  |  | > 100 µM | B (c) |  | IC50 (Stagonospora nodorum; [1]): > 100 µM; IC50 (Septoria tritici; Zymoseptoria tritici, fungal growth on agar, 20° C., 3-5 days, C.V. class in parentheses, read-out: IC50 S. tritici): > 100 µM
OC(c1cccnc1)c1c(-c2ccc(Cl)cc2Cl)noc1-c1ccsc1 (stereo not shown) [Compound 13, 3-(2,4-Dichlorophenyl)-4-[(3-pyridyl)hydroxymethyl]-5-(3-thienyl)isoxazole] | B (d) | A (b) | > 100 µM | B (b) |  | 
OC(c1cccnc1)c1c(-c2ccc(Cl)cc2Cl)noc1-c1cccs1 (stereo not shown) [Compound 12, 3-(2,4-Dichlorophenyl)-4-[(3-pyridyl)hydroxymethyl]-5-(2-thienyl)isoxazole] | B (d) | A (b) | > 100 µM | B (c) |  | 
C[Si](C)(C)c1onc(-c2ccc(Cl)cc2Cl)c1C(O)c1cccnc1 (stereo not shown) [Compound 3, 3-(2,4-Dichlorophenyl)-4-[(3-pyridyl)hydroxymethyl]-5-trimethylsilylisoxazole] |  |  | > 100 µM |  | A (b) | IC50 S. nodorum (Stagonospora nodorum): B (d); IC50 B. cinerea (Botrytis cinerea): B (b)
